According to paper PMC6159918 (Peptides, 2018):
Read-outs that look alike come from different tables or passages of the source.

Assays:
human BRS-3-receptor [1] = molecular target: T1, human BRS-3-receptor (Homo sapiens, UniProt P32247); assay: [3H]-inositol phosphates; type: cell-based; conditions: for EC50: EC50, release of [3H]IP; for [3H]IP (Exp/control) / [3H]IP (DPM): MK-5046 10 nM
T1 sequence (P32247 1-399): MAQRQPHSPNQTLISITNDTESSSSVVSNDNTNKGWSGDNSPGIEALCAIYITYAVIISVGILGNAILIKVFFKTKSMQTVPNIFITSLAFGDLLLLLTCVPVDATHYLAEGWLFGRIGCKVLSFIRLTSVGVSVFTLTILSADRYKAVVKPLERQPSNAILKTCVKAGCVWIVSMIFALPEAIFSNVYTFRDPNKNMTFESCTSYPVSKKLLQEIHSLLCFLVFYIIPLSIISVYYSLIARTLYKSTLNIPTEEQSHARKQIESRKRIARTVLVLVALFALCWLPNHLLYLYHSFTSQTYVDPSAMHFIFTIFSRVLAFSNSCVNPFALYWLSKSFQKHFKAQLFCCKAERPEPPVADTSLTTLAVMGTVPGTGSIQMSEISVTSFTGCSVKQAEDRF

human lung-cancer cells = assay: cells; type: cell-based; conditions: for EC50: Homo sapiens; for [3H]-Thymidine Incorporation (Exp/control): 24 h serum-free
human BRS-3-receptor [2] = molecular target: T1, human BRS-3-receptor; assay: Cytosolic Ca2+; type: cell-based; conditions: MK-5046 10 nM
BRS-3/Balb cells = conditions: 24 h serum-free, Balb-3T3 BRS-3-transfected
human BRS-3-receptor [3] = molecular target: T1, human BRS-3-receptor; assay: p42/44 MAPK phosphorylation; type: cell-based; conditions: for EC50: EC50, p42/44 phosphorylation; for P-p42/44 (Exp/control): MK-5046 10 nM, 3 min

O[C@@](Cc1nc(CC2(C(F)(F)F)CC2)c[nH]1)(c1ccc(-n2cccn2)cc1)C(F)(F)F [MK-5046, (2S)-1,1,1-trifluoro-2-[4-(1H-pyrazol-1-yl)phenyl]-3-(4-[[1-(trifluoromethyl)cyclopropyl]methyl]-1H-imidazol-2-yl)propan-2-ol]
greatest [3H]IP-increase in IP-production (human BRS-3-receptor [1]; BRS-3/H1299-cells): 8 fold
EC50 (human BRS-3-receptor [1]; BRS-3/H1299 cells): 370 ± 40 pM
EC50 (human BRS-3-receptor [1]; NCI-H69 cells): 3290 ± 540 pM
EC50 (human BRS-3-receptor [1]; NCI-H720 cells): 140 ± 50 pM
decrease in [3H]IP-release at supramaximal concentrations (human BRS-3-receptor [1]; H720 cells, p < 0.05): 28%
[3H]IP (Exp/control) (human BRS-3-receptor [1]; Balb-3T3 BRS-3 transfected): 7.50 ± 0.68 Exp/control
[3H]IP (DPM) (human BRS-3-receptor [1]; Balb-3T3 BRS-3 transfected, control 2487 ± 185): 18657 ± 1698 DPM
[3H]IP (Exp/control) (human BRS-3-receptor [1]; NCI-H69 (SCLC)): 3.38 ± 0.17 Exp/control
[3H]IP (DPM) (human BRS-3-receptor [1]; NCI-H69 (SCLC), control 177 ± 27): 597 ± 29 DPM
[3H]IP (Exp/control) (human BRS-3-receptor [1]; NCI-H82 (SCLC)): 2.09 ± 0.33 Exp/control
[3H]IP (Exp/control) (human BRS-3-receptor [1]; NCI-H358 (NSCLC)): 1.50 ± 0.15 Exp/control
[3H]IP (Exp/control) (human BRS-3-receptor [1]; NCI-H460 (NSCLC)): 1.63 ± 0.18 Exp/control
[3H]IP (Exp/control) (human BRS-3-receptor [1]; NCI-H510 (SCLC)): 1.12 ± 0.05 Exp/control
[3H]IP (Exp/control) (human BRS-3-receptor [1]; NCI-H520 (NSCLC)): 1.84 ± 0.36 Exp/control
[3H]IP (Exp/control) (human BRS-3-receptor [1]; NCI-H720 (carcinoid)): 1.64 ± 0.22 Exp/control
[3H]IP (Exp/control) (human BRS-3-receptor [1]; NCI-H727 (carcinoid)): 2.59 ± 0.22 Exp/control
[3H]IP (DPM) (human BRS-3-receptor [1]; NCI-H727 (carcinoid), control 143 ± 21): 371 ± 32 DPM
[3H]IP (Exp/control) (human BRS-3-receptor [1]; NCI-H1299 BRS-3 transfected): 7.63 ± 0.77 Exp/control
[3H]IP (Exp/control) (human BRS-3-receptor [1]; NCI-N417 (SCLC)): 4.31 ± 1.03 Exp/control
[3H]IP (DPM) (human BRS-3-receptor [1]; NCI-N417 (SCLC), control 660 ± 87): 2850 ± 571 DPM
maximal stimulated [3H]IP value (human BRS-3-receptor [1]; NCI-H69 cells, 100 nM MK-5046, control 177 ± 27 dpm): 834 ± 66 dpm
maximal stimulated [3H]IP value (human BRS-3-receptor [1]; NCI-H720 cells, 10 nM MK-5046, control 268 ± 23 dpm): 375 ± 31 dpm
maximal stimulated [3H]IP value (human BRS-3-receptor [1]; hBRS-3-NCI-H1299 cells, 100 nM MK-5046, control 1169 ± 88 dpm): 10,144 ± 1310 dpm
EC50 (human lung-cancer cells; NCI-H69, read-out: EC50, [3H]-Thymidine-uptake): 270 ± 60 pM
EC50 (human lung-cancer cells; NCI-H358, read-out: EC50, [3H]-Thymidine-uptake): 520 ± 70 pM
EC50 (human lung-cancer cells; NCI-H727, read-out: EC50, [3H]-Thymidine-uptake): 310 ± 60 pM
[3H]-Thymidine Incorporation (Exp/control) (human lung-cancer cells; MK-5046 10 nM, NCI-H69): 1.36 ± 0.09 Exp/control
[3H]-Thymidine Incorporation (Exp/control) (human lung-cancer cells; MK-5046 10 nM, NCI-H82): 1.08 ± 0.08 Exp/control
[3H]-Thymidine Incorporation (Exp/control) (human lung-cancer cells; MK-5046 10 nM, NCI-H358): 1.20 ± 0.05 Exp/control
[3H]-Thymidine Incorporation (Exp/control) (human lung-cancer cells; MK-5046 10 nM, NCI-H460): 1.29 ± 0.07 Exp/control
[3H]-Thymidine Incorporation (Exp/control) (human lung-cancer cells; MK-5046 10 nM, NCI-H510): 1.39 ± 0.04 Exp/control
[3H]-Thymidine Incorporation (Exp/control) (human lung-cancer cells; MK-5046 10 nM, NCI-H520): 1.27 ± 0.10 Exp/control
[3H]-Thymidine Incorporation (Exp/control) (human lung-cancer cells; MK-5046 10 nM, NCI-H720): 1.15 ± 0.04 Exp/control
[3H]-Thymidine Incorporation (Exp/control) (human lung-cancer cells; MK-5046 10 nM, NCI-H727): 1.41 ± 0.18 Exp/control
[3H]-Thymidine Incorporation (Exp/control) (human lung-cancer cells; MK-5046 10 nM, NCI-H1299 BRS-3-transfected): 1.41 ± 0.06 Exp/control
[3H]-Thymidine Incorporation (Exp/control) (human lung-cancer cells; MK-5046 10 nM, NCI-N417): 1.29 ± 0.08 Exp/control
[3H]-Thymidine Incorporation (Exp/control) (human lung-cancer cells; MK-5046 1 μM, NCI-H69): 0.76 ± 0.07 Exp/control
[3H]-Thymidine Incorporation (Exp/control) (human lung-cancer cells; MK-5046 1 μM, NCI-H82): 1.17 ± 0.05 Exp/control
[3H]-Thymidine Incorporation (Exp/control) (human lung-cancer cells; MK-5046 1 μM, NCI-H358): 1.15 ± 0.06 Exp/control
[3H]-Thymidine Incorporation (Exp/control) (human lung-cancer cells; MK-5046 1 μM, NCI-H460): 1.07 ± 0.07 Exp/control
[3H]-Thymidine Incorporation (Exp/control) (human lung-cancer cells; MK-5046 1 μM, NCI-H510): 1.36 ± 0.10 Exp/control
[3H]-Thymidine Incorporation (Exp/control) (human lung-cancer cells; MK-5046 1 μM, NCI-H520): 1.07 ± 0.14 Exp/control
[3H]-Thymidine Incorporation (Exp/control) (human lung-cancer cells; MK-5046 1 μM, NCI-H720): 1.17 ± 0.03 Exp/control
[3H]-Thymidine Incorporation (Exp/control) (human lung-cancer cells; MK-5046 1 μM, NCI-H727): 1.47 ± 0.16 Exp/control
[3H]-Thymidine Incorporation (Exp/control) (human lung-cancer cells; MK-5046 1 μM, NCI-H1299 BRS-3-transfected): 1.27 ± 0.11 Exp/control
[3H]-Thymidine Incorporation (Exp/control) (human lung-cancer cells; MK-5046 1 μM, NCI-N417): 1.26 ± 0.07 Exp/control
decrease in [3H]-Thymidine-uptake at supramaximal concentrations (human lung-cancer cells; NCI-H69-cells): 87%
decrease in [3H]-Thymidine-uptake at supramaximal concentrations (human lung-cancer cells; NCI-H358-cells): 23%
Ca2+ release (% over basal) (human BRS-3-receptor [2]; Balb-3T3 BRS-3 transfected): 7.43 ± 1.22 % over basal
Ca2+ release (% over basal) (human BRS-3-receptor [2]; NCI-H69 (SCLC)): 3.09 ± 0.67 % over basal
Ca2+ release (% over basal) (human BRS-3-receptor [2]; NCI-H82 (SCLC)): 9.00 ± 1.11 % over basal
Ca2+ release (% over basal) (human BRS-3-receptor [2]; NCI-H358 (NSCLC)): 1.65 ± 0.43 % over basal
Ca2+ release (% over basal) (human BRS-3-receptor [2]; NCI-H460 (NSCLC)): 5.77 ± 1.41 % over basal
Ca2+ release (% over basal) (human BRS-3-receptor [2]; NCI-H510 (SCLC)): 2.94 ± 0.52 % over basal
Ca2+ release (% over basal) (human BRS-3-receptor [2]; NCI-H520 (NSCLC)): 2.60 ± 0.40 % over basal
Ca2+ release (% over basal) (human BRS-3-receptor [2]; NCI-H720 (carcinoid)): 2.40 ± 0.28 % over basal
Ca2+ release (% over basal) (human BRS-3-receptor [2]; NCI-H727 (carcinoid)): 6.26 ± 1.43 % over basal
Ca2+ release (% over basal) (human BRS-3-receptor [2]; NCI-H1299 BRS-3 transfected): 8.04 ± 0.55 % over basal
Ca2+ release (% over basal) (human BRS-3-receptor [2]; NCI-N417 (SCLC)): 4.40 ± 0.62 % over basal
[3H]-Thymidine Incorporation (Exp/control) (BRS-3/Balb cells; MK-5046 10 nM): 1.00 ± 0.04 Exp/control
[3H]-Thymidine Incorporation (Exp/control) (BRS-3/Balb cells; MK-5046 1 μM): 1.24 ± 0.07 Exp/control
dose-response curve shape, p42/44 phosphorylation (human BRS-3-receptor [3]; BRS-3/H1299-transfected-cells): monophasic
EC50 (human BRS-3-receptor [3]; BRS-3/H1299-cells): 1900 ± 160 pM
EC50 (human BRS-3-receptor [3]; NCI-H69): 120 ± 10 pM
EC50 (human BRS-3-receptor [3]; NCI-H82): 1080 ± 160 pM
EC50 (human BRS-3-receptor [3]; NCI-H720): 1140 ± 570 pM
EC50 (human BRS-3-receptor [3]; NCI-H727): 20 ± 10 pM
EC50 (human BRS-3-receptor [3]; NCI-N417): 20 ± 10 pM
P-p42/44 (Exp/control) (human BRS-3-receptor [3]; Balb-3T3 BRS-3 transfected): 1.85 ± 0.21 Exp/control
P-p42/44 (Exp/control) (human BRS-3-receptor [3]; NCI-H69 (SCLC)): 1.95 ± 0.18 Exp/control
P-p42/44 (Exp/control) (human BRS-3-receptor [3]; NCI-H82 (SCLC)): 1.50 ± 0.10 Exp/control
P-p42/44 (Exp/control) (human BRS-3-receptor [3]; NCI-H358 (NSCLC)): 2.33 ± 0.34 Exp/control
P-p42/44 (Exp/control) (human BRS-3-receptor [3]; NCI-H460 (NSCLC)): 1.07 ± 0.16 Exp/control
P-p42/44 (Exp/control) (human BRS-3-receptor [3]; NCI-H510 (SCLC)): 2.22 ± 0.13 Exp/control
P-p42/44 (Exp/control) (human BRS-3-receptor [3]; NCI-H520 (NSCLC)): 1.88 ± 0.24 Exp/control
P-p42/44 (Exp/control) (human BRS-3-receptor [3]; NCI-H720 (carcinoid)): 2.53 ± 0.39 Exp/control
P-p42/44 (Exp/control) (human BRS-3-receptor [3]; NCI-H727 (carcinoid)): 2.41 ± 0.34 Exp/control
P-p42/44 (Exp/control) (human BRS-3-receptor [3]; NCI-H1299 BRS-3 transfected): 1.54 ± 0.28 Exp/control
P-p42/44 (Exp/control) (human BRS-3-receptor [3]; NCI-N417 (SCLC)): 1.64 ± 0.25 Exp/control
decrease in p42/44-phosphorylation at supramaximal concentrations (human BRS-3-receptor [3]; NCI-H82-cells, p < 0.002): 50 ± 7%
decrease in p42/44-phosphorylation at supramaximal concentrations (human BRS-3-receptor [3]; NCI-H727-cells, p < 0.0001): 49 ± 9%
decrease in p42/44-phosphorylation at supramaximal concentrations (human BRS-3-receptor [3]; NCI-N417, p < 0.0001): 29 ± 6%
dose-response curve shape, p42/44 phosphorylation (human BRS-3-receptor [3]; all the cells (NCI-H727, NCI-H720, NCI-H69, NCI-H82, NCI-N417) except BRS-3/H1299): biphasic
Emax at 1 µM (human BRS-3-receptor [3]; read-out: maximal stimulation of p42/44-MAPK phosphorylation): 96 ± 7%
